Earlier results in patent US20060078615A1, “Bilayer tablet of telmisartan and simvastatin” (Boehringer Ingelheim International GmbH, priority 2004, published 2006).

Settings: physiological pH range of the gastrointestinal tract, pH 1 to 7; free acid form

SMILES: CCCc1nc2c(C)cc(-c3nc4ccccc4n3C)cc2n1Cc1ccc(-c2ccccc2C(=O)O)cc1 [Telmisartan, 4′-[2-n-propyl-4-methyl-6-(1-methylbenzimidazol-2-yl)benzimidazol-1-ylmethyl]biphenyl-2-carboxylic acid]
- solubility in aqueous systems: very poor solubility
